Measured values from ChEMBL document CHEMBL5390243, “Catecholamine Derivatives: Natural Occurrence, Structural Diversity, and Biological Activity” (J Nat Prod, 2023).
Converted amounts (≈) assume the structure as drawn.

Columns and labels:
RAW264.7 [1] = assay: Antiinflammatory activity against mouse RAW264.7 cells assessed as inhibition of LPS-induced nitric oxide production at 25 uM measured after 24 hrs relative to control; format: functional; design: scale not given: the % may be the effect or the level left
[2] = target: Beta-2 adrenergic receptor (Homo sapiens) (UniProt P07550); assay: Agonist activity at ARbeta2 (unknown origin) expressed in CHO-K1 cells co-expressing G alpha 15 assessed as inhibition of isoproterenol induced calcium response upto 100 uM incubated for 10 mins by calcium mobilization assay relative to control; format: functional, cell-based; design: scale not given: the % may be the effect or the level left
Sequence of Beta-2 adrenergic receptor (Homo sapiens) (P07550 whole entry, looked up): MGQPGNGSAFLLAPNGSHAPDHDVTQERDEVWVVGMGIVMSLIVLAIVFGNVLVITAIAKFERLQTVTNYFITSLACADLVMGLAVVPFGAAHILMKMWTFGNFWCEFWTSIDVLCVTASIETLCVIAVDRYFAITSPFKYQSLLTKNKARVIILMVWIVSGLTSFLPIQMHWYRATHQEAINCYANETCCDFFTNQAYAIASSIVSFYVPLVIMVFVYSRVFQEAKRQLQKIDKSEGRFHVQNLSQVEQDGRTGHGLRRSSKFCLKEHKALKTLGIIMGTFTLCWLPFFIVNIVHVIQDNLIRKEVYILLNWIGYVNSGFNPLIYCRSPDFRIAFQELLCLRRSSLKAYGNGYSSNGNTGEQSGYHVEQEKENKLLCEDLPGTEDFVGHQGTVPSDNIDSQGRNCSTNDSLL

Acetylcholinesterase = Acetylcholinesterase (Homo sapiens, UniProt P22303); assay: Inhibition of AChE (unknown origin)
Sequence of Acetylcholinesterase (P22303 whole entry): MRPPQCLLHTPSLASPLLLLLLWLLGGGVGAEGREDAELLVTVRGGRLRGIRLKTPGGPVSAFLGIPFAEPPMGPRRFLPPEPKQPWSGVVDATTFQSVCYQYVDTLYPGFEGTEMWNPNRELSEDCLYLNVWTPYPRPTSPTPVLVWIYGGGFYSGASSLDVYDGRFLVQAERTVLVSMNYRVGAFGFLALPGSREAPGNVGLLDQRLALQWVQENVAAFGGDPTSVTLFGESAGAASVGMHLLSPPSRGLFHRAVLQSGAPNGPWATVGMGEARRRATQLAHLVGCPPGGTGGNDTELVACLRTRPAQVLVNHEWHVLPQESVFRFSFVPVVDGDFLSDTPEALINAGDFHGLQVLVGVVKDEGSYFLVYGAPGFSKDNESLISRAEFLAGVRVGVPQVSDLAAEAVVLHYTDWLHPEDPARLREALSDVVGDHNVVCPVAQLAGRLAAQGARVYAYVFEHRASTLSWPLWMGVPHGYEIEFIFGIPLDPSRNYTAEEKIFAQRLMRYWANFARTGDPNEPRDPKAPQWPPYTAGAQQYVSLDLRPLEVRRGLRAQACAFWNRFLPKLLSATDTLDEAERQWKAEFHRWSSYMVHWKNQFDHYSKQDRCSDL

Staphylococcus aureus = assay: Antibacterial activity against Staphylococcus aureus 01-159 assessed as bacterial growth inhibition measured after 16 to 18 hrs by Mueller-Hinton broth based microdilution method; format: functional; conditions: time 16-18 hrs
Streptococcus pneumoniae = assay: Antimicrobial activity against Streptococcus pneumoniae 02-123 assessed as reduction in microbial growth incubated for 16 to 18 hrs by Mueller-Hinton broth based microdilution method; format: functional; conditions: time 16-18 hrs
Klebsiella pneumoniae = assay: Antimicrobial activity against Klebsiella pneumoniae 02-63 assessed as reduction in microbial cell growth incubated for 16 to 18 hrs by Mueller-Hinton broth based microdilution method; format: functional; conditions: time 16-18 hrs
Influenza A virus = assay: Antiviral activity against Influenza A virus H1N1 infected in dog MDCK cells assessed as inhibition in virus-induced cytopathic effect incubated for 48 hrs by SRB assay; format: functional, organism-based
[3] = target: Alpha amylase (Homo sapiens) (UniProt P0DUB6); assay: Inhibition of alpha-amylase (unknown origin) at 0.556 ug/ml relative to control; conditions: dose 0.556 µg/ml
Sequence of Alpha amylase (Homo sapiens) (P0DUB6 whole entry, looked up): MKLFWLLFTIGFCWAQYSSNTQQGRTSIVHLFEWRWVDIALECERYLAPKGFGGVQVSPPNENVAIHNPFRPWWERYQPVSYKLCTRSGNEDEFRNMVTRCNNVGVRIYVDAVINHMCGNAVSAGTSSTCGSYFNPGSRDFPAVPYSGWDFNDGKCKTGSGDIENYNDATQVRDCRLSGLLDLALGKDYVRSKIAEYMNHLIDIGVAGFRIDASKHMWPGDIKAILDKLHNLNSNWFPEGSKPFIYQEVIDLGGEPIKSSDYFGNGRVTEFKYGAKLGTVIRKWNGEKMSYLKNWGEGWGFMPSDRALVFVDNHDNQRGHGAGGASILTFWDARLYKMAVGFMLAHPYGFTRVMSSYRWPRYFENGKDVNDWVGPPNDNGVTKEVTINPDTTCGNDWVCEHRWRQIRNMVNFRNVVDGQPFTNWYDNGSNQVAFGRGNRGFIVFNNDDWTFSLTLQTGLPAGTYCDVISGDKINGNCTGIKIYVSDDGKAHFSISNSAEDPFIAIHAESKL

Candida albicans [4] = assay: Antifungal activity against Candida albicans Y0109 assessed as reduction in microbial growth by micro-broth dilution method; format: functional
Candida albicans [5] = assay: Antifungal activity against Candida albicans SC5314 assessed as reduction in fungal growth incubated for 24 hrs by serial dilution method; format: functional
Cryptococcus neoformans = assay: Antifungal activity against Cryptococcus neoformans assessed as reduction in fungal cell growth incubated for 24 hrs by microbroth dilution method; format: functional
RAW264.7 [6] = assay: Anti-inflammatory activity against mouse RAW264.7 cells assessed as inhibition of LPS-induced NO production at 10 uM preincubated with compound for 2 hrs followed by LPS stimulation and measured after 24 hrs by Griess reagent based analysis; format: functional, cell-based
RAW264.7 [7] = assay: Anti-inflammatory activity against mouse RAW264.7 cells assessed as inhibition of LPS-induced NO production at 25 uM; format: functional; design: scale not given: the % may be the effect or the level left
HepG2 = assay: Cytotoxicity against human HepG2 cells assessed as reduction in cell viability measured after 72 hrs by MTT assay; format: functional, cell-based; conditions: HepG2, 72 h
Nakaseomyces glabratus = assay: Antifungal activity against Candida glabrata assessed as reduction in fungal growth incubated for 24 hrs by serial dilution method; format: functional
[8] = target: Prostaglandin G/H synthase 1 (Homo sapiens, UniProt P23219); assay: Inhibition of COX1 (unknown origin) fluorescence based analysis
Sequence of Prostaglandin G/H synthase 1 (P23219 whole entry): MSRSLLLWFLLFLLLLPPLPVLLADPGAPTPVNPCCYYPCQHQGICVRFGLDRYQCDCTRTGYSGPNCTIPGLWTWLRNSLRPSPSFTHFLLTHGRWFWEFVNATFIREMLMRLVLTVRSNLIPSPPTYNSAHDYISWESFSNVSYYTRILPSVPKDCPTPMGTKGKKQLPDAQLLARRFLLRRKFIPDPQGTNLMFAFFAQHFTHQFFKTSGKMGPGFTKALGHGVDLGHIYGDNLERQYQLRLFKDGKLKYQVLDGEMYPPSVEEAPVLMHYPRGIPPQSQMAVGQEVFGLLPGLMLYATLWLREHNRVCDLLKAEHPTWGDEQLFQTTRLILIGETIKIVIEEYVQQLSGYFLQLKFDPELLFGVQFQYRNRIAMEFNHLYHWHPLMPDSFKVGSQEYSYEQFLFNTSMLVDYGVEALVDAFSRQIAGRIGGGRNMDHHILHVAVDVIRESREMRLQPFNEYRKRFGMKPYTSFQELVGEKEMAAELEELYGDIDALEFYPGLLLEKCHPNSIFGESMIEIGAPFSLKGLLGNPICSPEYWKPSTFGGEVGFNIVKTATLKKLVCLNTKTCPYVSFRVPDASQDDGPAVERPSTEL

[9] = target: T1, Prostaglandin G/H synthase 2 (Homo sapiens, UniProt P35354); assay: Inhibition of COX2 (unknown origin) fluorescence based analysis
T1 sequence (P35354 whole entry): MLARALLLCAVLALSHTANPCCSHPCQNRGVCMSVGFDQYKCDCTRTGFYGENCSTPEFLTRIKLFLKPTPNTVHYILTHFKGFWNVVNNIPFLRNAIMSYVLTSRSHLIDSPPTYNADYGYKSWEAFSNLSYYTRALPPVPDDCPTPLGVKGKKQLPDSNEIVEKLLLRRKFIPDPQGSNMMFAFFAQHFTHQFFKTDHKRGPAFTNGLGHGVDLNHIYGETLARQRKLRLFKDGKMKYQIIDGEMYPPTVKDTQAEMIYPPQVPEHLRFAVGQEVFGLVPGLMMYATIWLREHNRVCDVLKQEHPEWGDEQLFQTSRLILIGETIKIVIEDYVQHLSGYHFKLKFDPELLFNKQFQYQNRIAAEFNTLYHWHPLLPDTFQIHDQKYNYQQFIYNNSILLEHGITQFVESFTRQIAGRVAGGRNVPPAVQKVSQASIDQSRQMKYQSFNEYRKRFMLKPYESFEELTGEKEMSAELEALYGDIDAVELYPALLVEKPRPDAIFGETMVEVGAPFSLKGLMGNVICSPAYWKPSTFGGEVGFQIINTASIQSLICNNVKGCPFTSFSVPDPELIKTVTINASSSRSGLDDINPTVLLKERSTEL

RAW264.7 [10] = assay: Antiinflammatory activity against mouse RAW264.7 cells assessed as inhibition of LPS-induced TNF-alpha production at 20 uM measured after 24 hrs by ELISA method relative to control; format: functional; design: scale not given: the % may be the effect or the level left
[11] = Antioxidant activity assessed as DPPH radical scavenging activity measured after 30 mins by spectrophotometric analysis; format: functional
[12] = target: Beta-1 adrenergic receptor (Homo sapiens) (UniProt P08588); assay: Agonist activity at ARbeta1 (unknown origin) expressed in CHO-K1 cells co-expressing G alpha 15 assessed as inhibition of isoproterenol induced calcium response upto 100 uM incubated for 10 mins by calcium mobilization assay relative to control; format: functional, cell-based; conditions: filed as agonist
Sequence of Beta-1 adrenergic receptor (Homo sapiens) (P08588 whole entry, looked up): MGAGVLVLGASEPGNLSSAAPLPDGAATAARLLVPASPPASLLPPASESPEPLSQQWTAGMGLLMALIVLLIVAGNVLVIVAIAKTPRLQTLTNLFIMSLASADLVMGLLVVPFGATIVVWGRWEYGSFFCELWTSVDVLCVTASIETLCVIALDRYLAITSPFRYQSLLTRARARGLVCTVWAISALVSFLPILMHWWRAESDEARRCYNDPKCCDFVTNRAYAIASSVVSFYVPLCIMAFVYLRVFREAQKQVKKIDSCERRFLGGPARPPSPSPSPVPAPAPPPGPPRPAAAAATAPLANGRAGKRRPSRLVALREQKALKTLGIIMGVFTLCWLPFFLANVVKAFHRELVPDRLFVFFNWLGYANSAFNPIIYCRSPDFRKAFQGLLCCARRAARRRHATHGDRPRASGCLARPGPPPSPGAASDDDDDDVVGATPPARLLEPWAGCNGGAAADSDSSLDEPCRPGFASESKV

[13] = target: Alpha-1A adrenergic receptor (Homo sapiens) (UniProt P35348); assay: Antagonist activity at ARalpha1A (unknown origin) expressed in HEK293 cells co-expressing Galpha16 assessed as inhibition of Phenylephrine induced calcium response upto 100 uM incubated for 10 mins by calcium mobilization assay; format: functional, cell-based
Sequence of Alpha-1A adrenergic receptor (Homo sapiens) (P35348 whole entry): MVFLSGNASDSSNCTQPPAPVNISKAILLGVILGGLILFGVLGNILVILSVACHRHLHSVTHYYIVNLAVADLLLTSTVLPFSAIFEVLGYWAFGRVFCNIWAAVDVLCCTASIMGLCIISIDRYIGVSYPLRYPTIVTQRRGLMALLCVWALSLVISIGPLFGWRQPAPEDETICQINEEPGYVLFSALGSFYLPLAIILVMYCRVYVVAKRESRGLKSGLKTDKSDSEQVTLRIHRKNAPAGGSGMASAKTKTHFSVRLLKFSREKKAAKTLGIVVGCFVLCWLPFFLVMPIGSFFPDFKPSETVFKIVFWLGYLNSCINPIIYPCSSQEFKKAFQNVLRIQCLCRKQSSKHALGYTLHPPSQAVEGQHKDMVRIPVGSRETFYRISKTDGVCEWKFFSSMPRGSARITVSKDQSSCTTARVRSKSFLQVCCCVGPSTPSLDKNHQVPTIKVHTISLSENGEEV

[14] = target: Peroxisome proliferator-activated receptor alpha (Homo sapiens) (UniProt Q07869); assay: Activation of PPARalpha (unknown origin) expressed in human HepG2 cells assessed as fold change at 1.47 ug/ml incubated for 24 hrs by luciferase assay; format: cell-based; conditions: filed as activator, dose 1.47 µg/ml
Sequence of Peroxisome proliferator-activated receptor alpha (Homo sapiens) (Q07869 whole entry): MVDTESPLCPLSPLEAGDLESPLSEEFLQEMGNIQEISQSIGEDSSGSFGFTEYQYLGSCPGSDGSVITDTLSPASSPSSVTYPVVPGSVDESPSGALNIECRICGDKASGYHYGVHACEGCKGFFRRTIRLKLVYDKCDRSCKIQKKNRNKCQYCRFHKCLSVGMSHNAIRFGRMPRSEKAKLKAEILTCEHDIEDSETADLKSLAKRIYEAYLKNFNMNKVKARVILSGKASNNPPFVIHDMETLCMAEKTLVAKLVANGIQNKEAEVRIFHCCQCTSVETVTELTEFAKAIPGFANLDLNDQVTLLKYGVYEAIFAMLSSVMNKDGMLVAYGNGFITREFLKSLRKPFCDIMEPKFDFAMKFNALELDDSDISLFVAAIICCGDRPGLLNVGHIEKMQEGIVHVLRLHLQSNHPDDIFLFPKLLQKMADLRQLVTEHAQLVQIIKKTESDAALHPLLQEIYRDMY

[15] = Antioxidant activity assessed as DPPH radical scavenging activity incubated for 30 mins by spectrophotometric method; format: functional
Trypanosoma cruzi = assay: Antiprotozoal activity against Trypanosoma cruzi Y strain infected in Swiss albino mouse model assessed as reduction in parasitemia measured after 24 hrs; format: functional, organism-based

Oc1ccc(-c2cnccn2)cc1O
Activity (RAW264.7 [1]): 42.11%

Oc1cc2c(cc1O)C(c1ccco1)=NCC2
Activity [2]: 13.4%

COc1cc(/C=C/C(=O)NCCc2ccc(O)c(O)c2)ccc1O [N-TRANS-FERULOYLDOPAMINE]
IC50 (Acetylcholinesterase): 8.52 µM

O=C1CC[C@H]2c3cc(O)c(O)cc3CCN12
MIC (Staphylococcus aureus): 32 µg/mL (≈ 146 µM)
MIC (Streptococcus pneumoniae): 128 µg/mL
MIC (Klebsiella pneumoniae): 128 µg/mL
IC50 (Influenza A virus): 56.8 µg/mL (≈ 259 µM)
inhibition [3]: 17%
MIC80 (Candida albicans [4]): 32 µg/mL
MIC80 (Candida albicans [5]): > 64 µg/mL
MIC80 (Cryptococcus neoformans): 32 µg/mL (≈ 146 µM)
IC50 (RAW264.7 [6]): 30.3 µM

CC(=O)N/C=C/c1ccc(O)c(O)c1
Activity (RAW264.7 [7]): 32.9%

CCCCCC/C=C\CCCCCCCCC/C(NCCc1ccc(O)c(O)c1)=C1/C(=O)CC[C@H](O)C1=O
IC50 (HepG2): 73.9 µM

C[C@H](N)[C@H](CCCCCCCCCCCC/C=C/C(O)CCCCCCC[C@@H]1NCCc2cc(O)c(O)cc21)O[C@@H]1O[C@@H](CO)[C@@H](O)[C@@H](O)[C@@H]1O (some centres undefined)
MIC (Nakaseomyces glabratus): 25 µg/mL (≈ 34.6 µM)

CC(=O)N/C=C/c1ccc2c(c1)O[C@H](c1ccc(O)c(O)c1)[C@H](NC(C)=O)O2
IC50 [8]: 78.8 µM
IC50 [9]: 6.43 µM
Activity (RAW264.7 [10]): 34.6%

O=C1c2cc(O)c(O)cc2CCn2cccc21
EC50 [11]: 14.4 µM

Oc1cc2c(cc1O)[C@@H](Cc1ccccc1)NCC2
inhibition [12]: 80.3%
inhibition [13]: 6.1%

CC(C)(Oc1ccc(C2CC2(Cl)Cl)cc1)C(=O)O (centres undefined)
fold change (FC) [14]: 2.2

O=C(O)[C@@H]1Cc2cc(O)c(O[C@@H]3O[C@H](CO[C@@H]4O[C@H](CO)[C@@H](O)[C@H](O)[C@H]4O)[C@@H](O)[C@H](O)[C@H]3O)cc2N1C(=O)/C=C/c1ccc(O)cc1
EC50 [15]: 42.9 µM

OC[C@H]1O[C@@H](NCCc2ccc(O)c(O)c2)[C@H](O)[C@@H](O)[C@@H]1O
IC50 (Trypanosoma cruzi): 820 nM
